Results on 29 compounds are retold here after patent US9393221B2, “Methods and compounds for reducing intracellular lipid storage” (THE GENERAL HOSPITAL CORPORATION, priority 2011, dated 2016).

Structures are written as SMILES. Where a name gives a salt, the structure may show the parent alone.

The test system of one experiment is ATGL-KO iPSCs. Put plainly: High throughput iPSC chemical screening, Oil Red O (ORO) lipid accumulation. On Z-score: test concentration or dose not given here. The format is cell-based, mouse. Particulars: glycolytic switch compounds.
For the compound `C#C[C@]1(OC(C)=O)CC[C@H]2[C@@H]3CCC4=C[C@@H](OC(C)=O)CC[C@@H]4[C@H]3CC[C@@]21C` [Ethynodiol diacetate], the “Rank in normalized ORO score from screen” value turned out to be 61. Take `CC(NCCC(c1ccccc1)c1ccccc1)c1ccccc1` (stereo not shown) [Fendiline hydrochloride, reference compound]: the “Rank in normalized ORO score from screen” value was determined as 1.

The experiment is the same for the next values; noted with them: normalized ORO level vs DMSO-treated cells; compound present during 7 days differentiation, 96-well; negative = decrease in lipid accumulation.
For the compound `CCOc1ccc2c(c1)C(C)=CC(C)(C)N2` [Ethoxyquin], the Z-score was −0.0471. Still for that read-out and setting: with `C#C[C@]1(OC(C)=O)CC[C@H]2[C@@H]3CCC4=C[C@@H](OC(C)=O)CC[C@@H]4[C@H]3CC[C@@]21C` [Ethynodiol diacetate] the figure was −1.4458; with `C#C[C@]1(O)CC[C@H]2[C@@H]3CCc4cc(OC)ccc4[C@H]3CC[C@@]21C` [Ethynylestradiol 3-methyl ether], −0.93; with `CC(O)(P(=O)(O)O)P(=O)(O)O` [Etidronic acid, disodium salt], −0.1368.

On to `CCc1cccc(CC)c1NC(=O)CN(CC(=O)O)CC(=O)O` [Etifenin], for which the Z-score is given as −1.0427. For `CCNCC(O)c1cccc(O)c1` (stereo not shown) [Etilefrine hydrochloride], the Z-score was determined as 0.1398. On the same count and under the same terms, then `CCc1cccc2c3c([nH]c12)C(CC)(CC(=O)O)OCC3` (stereo not shown) [Etodolac], with 1.6287; and `Cn1c(=O)c2c(ncn2CCO)n(C)c1=O` [Etofylline], with −0.8406; and `CCOC(=O)c1cncn1[C@H](C)c1ccccc1` [Etomidate], with 0.2274. Regarding `COc1cc([C@@H]2c3cc4c(cc3[C@@H](O[C@@H]3O[C@@H]5CO[C@@H](C)O[C@H]5[C@H](O)[C@H]3O)[C@H]3COC(=O)[C@H]23)OCO4)cc(OC)c1O` [Etoposide], the Z-score turned out to be 39.4033. The same measure, in the same setting: with `CC1CC(OC(=O)C(O)c2ccccc2)CC(C)(C)N1C` (stereo not shown) [Eucatropine hydrochloride] the figure was 0.9133; with `COc1c2ccoc2nc2c(OC)c(OCC(O)C(C)(C)O)ccc12` (stereo not shown) [Evoxine], −0.3336.

On to `NC(N)=Nc1nc(CSCCC(N)=NS(N)(=O)=O)cs1` [Famotidine], for which the Z-score was −1.1457. `CC(C)c1c(CN(C)C(C)Cc2ccccc2)n(C)n(-c2ccccc2)c1=O` (stereo not shown) [Famprofazone] gave a Z-score of 0.6911.

As for `O=C(O)Cc1ccc(-c2ccccc2)cc1` [Felbinac], the Z-score is listed as −0.9529.

In the case of `CCOC(=O)C1=C(C)NC(C)=C(C(=O)OC)C1c1cccc(Cl)c1Cl` (stereo not shown) [Felodipine], the Z-score worked out at 1.337. On the same count and under the same terms, then `COC(=O)Nc1nc2ccc(Sc3ccccc3)cc2[nH]1` [Fenbendazole], with 16.3822. Same read-out and setting: with `O=C(O)CCC(=O)c1ccc(-c2ccccc2)cc1` [Fenbufen] the figure was −0.3877; with `CC(NCCC(c1ccccc1)c1ccccc1)c1ccccc1` (stereo not shown) [Fendiline hydrochloride, reference compound], −2.53; with `CC(C)OC(=O)C(C)(C)Oc1ccc(C(=O)c2ccc(Cl)cc2)cc1` [Fenofibrate], −1.6051. With `CC(C(=O)O)c1cccc(Oc2ccccc2)c1` (stereo not shown) [Fenoprofen calcium salt dihydrate], the Z-score was −0.4668. On the same count and under the same terms, then `CC(Cc1ccc(O)cc1)NCC(O)c1cc(O)cc(O)c1` (stereo not shown) [Fenoterol hydrobromide], with −0.7445; and `O=C1NCC2(CCN(CCc3ccccc3)CC2)O1` [Fenspiride hydrochloride], with 0.2827.

In turn, `COc1cc(C(=O)OC2CC3CCC(C2)N3C)ccc1O` (stereo not shown) [Fillalbin] displayed a Z-score of 0.7621. The same measure, in the same setting: then `CC(C)(C)NC(=O)[C@H]1CC[C@H]2[C@@H]3CC[C@H]4NC(=O)C=C[C@]4(C)[C@H]3CC[C@]12C` [Finasteride], with 1.067. As for `O=C(COc1ccc(Cl)cc1)N1CCN(Cc2ccc3c(c2)OCO3)CC1` [Fipexide hydrochloride], the Z-score is −0.9747. Compound `Cc1c(-c2ccccc2)oc2c(C(=O)OCCN3CCCCC3)cccc2c1=O` [Flavoxate hydrochloride] displayed a Z-score of 0.3535. On the same count and under the same terms, then `O=C(NCC1CCCCN1)c1cc(OCC(F)(F)F)ccc1OCC(F)(F)F` (stereo not shown) [Flecainide acetate], with −0.9948; and `CS(=O)(=O)c1ccc([C@@H](O)[C@@H](CF)NC(=O)C(Cl)Cl)cc1` [Florfenicol], with 31.4352.
